This note sets out measurements from patent publication US8106051B2, “Utilities of amide compounds” (Shionogi & Co., Ltd., priority 2001, dated 2012).

Series [1] relates to promoter region of the gene encoding human apoAI. Description: Activity to enhance the expression of human apoAI (apoAI promoter-luciferase reporter in HepG2 cells). It is filed as cell-based. The settings on record: HepG2 cells stably expressing human apoAI promoter-firefly luciferase reporter; 24 hours incubation; 0 to 10 μg/mL; control DMSO. The procedure:
The promoter region of the gene encoding human apoAI was isolated, and ligated upstream the structure gene of firefly luciferase to construct a reporter plasmid. The reporter plasmid and a marker plasmid conferring the neomycin resistance were co-infected to cell lines derived from human hepatoma, HepG2 cells, and the cell lines were incubated in a selection medium comprising DMEM medium containing 10% fetal calf serum supplemented with G418 (Final concentration: 0.7 mg/mL, Gibco) to give established strains that stably expressed the reporter molecule. The strains were seeded to a 96-well culture plates at a density of 50,000 cells per well, and incubated for 48 hours at 37° C. under an atmosphere of 5% carbon dioxide. Then, a solution of the compounds according to the invention in DMSO was added to the wells at final concentrations of 0 to 10 μg/mL. After further incubation for 24 hours, the cells were added with a luciferase assay reagent (Piccagene LT 7.5 registered trade mark, Toyo Ink, KK), and the luciferase activity was determined using a luminometer (MicroBeta™ TRILUX, 1 sec/well, Wallac). The concentration of the compounds, which intensified the luciferase activity twice compared to that of control (DMSO without any compound of the invention added) was set as the minimal effective dose (MED).
A general note: Reporter assays use an easily measured gene product as a stand-in for the process of interest.

What is called melting point is the temperature of the solid-liquid transition. In turn, `O=C(C=Cc1ccccc1)Nc1cnc2ccccc2n1` [Ia-9, 3-Phenyl-N-quinoxalin-2-yl-acrylamide] gave a melting point of 177 to 178 °C. With `Cc1ccc(NC(=O)c2ccc(Cl)cc2)cc1` [Ib-17, 4-Chloro-N-(4-tolyl)benzamide], in series [1], the “MED (minimal effective dose): concentration which intensified the luciferase activity twice compared to that of control” value is 0.30 µg/mL.
